Results published in patent US20240286179A1, “METHODS AND COMPOSITIONS FOR WASTE MANAGEMENT SYSTEMS” (priority 2023, published 2024).
Read-outs that look alike come from different tables or passages of the source.

Key:
[1] = test system: methanogenesis
Procedure: A composting experiment was conducted in a 2-liter plastic soda bottle with 1 cup of organic food waste from kitchen waste with coffee grounds, 1 cup of leaves or grass clippings, 1 cup of shredded paper, and 4 cups of wet creek bed soil with 16 g of sodium chlorite (9.6 g/kg soil concentration) or 4 cups of wet creek bed soil without sodium chlorite. Gas produced in this experiment was collected using water displacement method. The %/Vol of methane was measured with a portable multi 4 gas detector with air gas sampling pump.
The LEL of CH4 is 5% of gas volume.

[2] = test system: methanogenesis; remark: listed apart in the source
Procedure: An anoxic composting reactor was designed and constructed that comprised of a 2-liter plastic soda bottle attached to a 200 ml foil gas bag for quantitative gas analysis using gas chromatography. Composting experiments in anoxic composting reactor were conducted with 1 cup of organic food waste from kitchen waste with coffee grounds, 1 cup of leaves or grass clippings, 1 cup of shredded paper, and 4 cups of surface creek soil with 16 g of NaClO2 (9.6 g/kg soil concentration) or 4 cups of surface creek soil without NaClO2 or 4 cups of landfill cover soil with 16 g of NaClO2, or 4 cups or landfill cover soil without NaClO2.
Volumes of gas in the foil bags were estimated over a 3-week period. The gas samples were analyzed for fixed gases (hydrogen, oxygen, nitrogen, carbon monoxide, methane, and carbon dioxide) according to modified EPA Method 3C (single injection) using a gas chromatograph equipped with a thermal conductivity detector by ALS Environmental (Simi Valley, CA).

[3] = test system: chlorite dismutase (Cld) enzymes; conditions: 16 g NaClO2 (30 g/kg)
Procedure: A qualitative reactor for detection of gas production was designed and constructed using: 300 mL plastic water bottle, 7-inch balloon and 3×⅛ in rubber band. The surface creek soil, deep creek soil, and landfill soil cover samples were placed in qualitative reactor with 16 g NaClO2 (30 g/kg soil concentration) and without any NaClO2 to screen for the presence of Cld enzymes by observing the inflation of balloon indicating biogas production.

[4] = test system: chlorite dismutase (Cld) enzymes; conditions: for balloon inflation: creek water
Procedure: A qualitative sampling device was created using: 300 mL plastic water bottle, 7-inch balloon and 3×⅛ in rubber band. Freshwater, wet creek bed soil (alluvial soil), and dry creek bank soil samples were collected from a stream habitat (Denton Creek in Coppell, Texas). Samples were placed in a sampling device with or without sodium chlorite (0 g, 16 g, or 32 g) to screen for the presence of Cld enzymes by observing inflation of balloon.

[5] = test system: chlorite dismutase (Cld) enzymes
Procedure: Using water displacement method, the oxygen production and yield were calculated from 4 gm of sodium chlorite in a 300 mL wet creek bed soil sample (526 gm) placed in 500 mL Erlenmeyer flask with rubber stopper connected with rubber tubing to an inverted 1 L graduated beaker full of water and placed in a rectangular plastic tub with water.

[6] = wet creek bed soil with 16 g NaClO2 (9.6 g/kg)

sodium chlorite [NaClO2]
Methane % Day 12 ([1]; Volume %, 16 g NaClO2 (9.6 g/kg), Day 12): 0.75%
Methane % Day 23 ([1]; Volume %, 16 g NaClO2 (9.6 g/kg), Day 23): 0%
Methane % Day 34 ([1]; Volume %, 16 g NaClO2 (9.6 g/kg), Day 34): 0%
time at which gas production plateaued [1, 6]: about 134 hours
time at which gas production was noted after set-up [1, 6]: one
time within which most of the measurable gas production occurred [1, 6]: ≤ 46 h
millimoles of methane generated, creek reactors without NaClO2 compared with creek reactors with NaClO2 ([2]; P-value=0.037, one-tailed paired t test): significantly higher
volume of biogas produced ([2]; creek soil reactors with NaClO2, spread +/−81, P=0.009 vs without NaClO2): 328 mL
CO2 levels in gas ([2]; landfill soil cover samples with or without NaClO2): lower levels of CO2
CO2 levels in gas ([2]; surface creek soil, 16 g NaClO2 (9.6 g/kg)): increasing levels of CO2
onset of gas production ([2]; surface creek soil, 16 g NaClO2 (9.6 g/kg), over a 60-hour period): immediate gas production
time to rapid balloon inflation ([3]; deep creek soil): ≤ 6 h
balloon inflation ([3]; landfill cover soil): did not show any balloon inflation
time to rapid balloon inflation ([3]; surface creek soil): ≤ 6 h
time to rapid balloon inflation ([4]; alluvial creek bed soil, 16 g (0.053 g/ml) NaClO2): ≤ 6 h
balloon inflation ([4]; 16 g (0.053 g/ml) NaClO2, after 2 days): no balloon inflation
balloon inflation ([4]; 32 g (0.11 g/ml) NaClO2, after 2 days): no balloon inflation
measurable gas production ([5]; 4 g NaClO2 in 526 g creek bed soil (7.6 g/kg), over a 65-hour period before plateauing): 145 mL
measurable volume as % of theoretical oxygen yield ([5]; reduction of 4 grams NaClO2, calculated using the Ideal Gas Law): around 14%
